Experimental data from the NIST ThermoML archive (doi:10.1021/acs.jced.7b00902).

Conditions: Surface laser light scattering (SLLS); for viscosity: Liquid

FC(F)(F)/C=C/Cl [(E)-1-chloro-3,3,3-trifluoroprop-1-ene]
Conditions | surface tension liquid-gas [mN/m] | viscosity [mPa·s]
303.14 K | 13.3 | 0.2857
313.15 K | 12.37 | 0.2504
323.19 K | 10.89 | 0.2265
333.18 K | 9.74 | 0.2079
343.16 K | 8.62 | 0.1891
353.19 K | 7.58 | 0.1695
363.15 K | 6.4 | 0.1595
373.14 K | 5.38 | 0.1406
373.17 K | 5.38 | 0.1448
383.15 K | 4.37 | 0.1318
393.17 K | 3.41 | 0.1191
403.15 K | 2.45 | 0.1047

O=C(C(F)(F)C(F)(F)F)C(F)(C(F)(F)F)C(F)(F)F [dodecafluoro-2-methylpentan-3-one]
Conditions | surface tension liquid-gas [mN/m] | viscosity [mPa·s]
303.16 K | 10.09 | 0.585
313.12 K | 9.26 | 0.4939
313.18 K | 9.24 | 0.5033
323.15 K | 8.43 | 0.4357
333.12 K | 7.56 | 0.3776
343.15 K | 6.7 | 0.329
353.16 K | 5.84 | 0.2907
363.14 K | 4.99 | 0.2569
373.14 K | 4.19 | 0.228
383.13 K | 3.44 | 0.1998
393.15 K | 2.71 | 0.1719
403.17 K | 2.02 | 0.1471
413.18 K | 1.37 | 0.1309
423.15 K | 0.78 | 0.104
433.02 K | 0.27 | 0.0768
